| SMILES | melting point |
| --- | --- |
| COc1ccc(OC)c2c(Nc3ccc(Cl)cc3F)c(C#N)cnc12 | 197 to 199 °C |
| COC=C1C(=O)NC(=O)c2ccccc21 | 260 to 261 °C |
| CCCCc1nc2c(N)nc3ccccc3c2n1CC1(O)CCOCC1 | 235 to 236 °C |
| O=C(Nc1ccc(-c2ccccc2)cc1)c1cccc([N+](=O)[O-])c1O | 152 °C |
| CCOC(=O)C1=C(C)NC(N)=C(C(=O)OC(C)C)C1c1cccc([N+](=O)[O-])c1 (stereo unspecified) | 175 to 176 °C |
| CNc1nc(N)nc(NC)n1 | 291 °C |
| COc1cccc(OC(=O)c2ncn3c2[C@@H]2CCCN2C(=O)c2c(Cl)cccc2-3)c1 | 184 to 185 °C |
| CON=C(C(=O)O)c1csnn1 | 110 to 113 °C |
| O=C(CCc1c[nH]c2ccccc12)NCC1CNc2ccccc2O1 (stereo unspecified) | 145 to 146 °C |
| O=C(Nc1ccccc1)Nc1nc(C(O)CO)cs1 (stereo unspecified) | 175 to 178 °C |
| CNC(=O)OC(Cn1cncn1)c1ccc(Cl)cc1Cl (stereo unspecified) | 204 °C |
| COC(=O)c1c(Sc2ccc(OC)cc2)nc(-c2ccccc2)n1Cc1cc2c(cc1Cl)OCO2 | 161 °C |
| COC(=N)c1ccc(Br)cc1 | 64 to 65 °C |
| COc1ccc2c(c1)C13CCCOC1(C)C(C2)N(C#N)CC3 (stereo unspecified) | 157 to 158 °C |
| COc1ccc2c(c1)CCc1cnc(N(C)c3cc(OC)c(OC)c(OC)c3)nc1-2 | 199 to 201 °C |
| O=C(N[C@H]1CC[C@H](CCN2CCN(c3nccc4c3OCC4)CC2)CC1)C1(O)CCC1 | 250 °C |
| CCCCOCC(O)COc1ccc(-c2nc(-c3ccc(OCC(O)COCCCC)cc3O)nc(-c3c(C)cc(C)cc3C)n2)c(O)c1 (stereo unspecified) | 125 to 131 °C |
| CNC(=O)c1cnc2cccc(C)n2c1=O | 208 to 210 °C |
| CCCCCNC(=O)c1cc(N2CCN(C(=O)c3ccccc3C(F)(F)F)CC2)nn1C(=O)OCc1ccccc1 | 58 to 61 °C |
| CSc1nc2c(n1-c1ccccc1)CCCC2 | 112 °C |
| Clc1ccc2nc(Cl)oc2c1 | 40 to 44 °C |
| COc1ccc2c(c1)cc(C(=O)O)n2-c1ccccc1 | 197 to 204 °C |

| SMILES | melting point |
| --- | --- |
| COC(=O)CCCCCCCCOC1OC(CO)C(O)C(OC2OC(CO)C(O)C(O)C2O)C1OC1OC(C)C(O)C(O)C1O (stereo unspecified) | 147 to 150 °C |
| CN(Cc1nnc2n1-c1ccc(Cl)cc1C(c1ccccc1)=NC2)CC1CC1 | 171 to 176 °C |
| Cc1oc(-c2ccccc2)nc1COc1ccc(CCCO)cc1 | 70 to 71 °C |
| COc1ccccc1-n1nnc2cc(F)c(NC(C)=O)cc21 | 174 to 175 °C |
| COc1ccc(S(=O)(=O)O)cc1OC(=O)c1ccccc1 | 139 to 140 °C |
| O=C(Nc1ccc(C(=O)O)cc1)OCc1cn(-c2cc3cc(C(=O)O)c(=O)[nH]c3cc2[N+](=O)[O-])cn1 | > 300 °C |
| COc1ccc(-c2nc(Sc3ccc(Cl)cc3)cc(N3CCN(C)CC3)n2)cc1 | 143 to 145 °C |
| COc1cc(-c2cc(=O)c3c(OC)c(OC)c(OC)c(OC)c3o2)ccc1OCc1ccccc1 | 109 to 111 °C |
| Cc1ccccc1CNC(=O)[C@@H]1CSCN1C(=O)[C@@H](O)[C@H](Cc1ccccc1)NC(=O)C(C)C(C)C(=O)OC[C@H]1O[C@@H](n2cc(C)c(=O)[nH]c2=O)CC1N=[N+]=[N-] (stereo partly specified) | 114 to 115 °C |
| CNc1n[nH]c(=O)n1N=C(C)CC(C)C | 136 °C |
| CNc1cc(Oc2ccc3ncccc3c2)ncn1 | 173 °C |
| CCCc1ccc2nc(C(=O)OCC)cn2n1 | 54 to 54.5 °C |
| Cc1c(Cc2cccc(C(F)(F)F)c2)sc2c(-c3cccc(C(N)=O)c3)cccc12 | 190 to 191 °C |
| CCOCc1nc2c(N)nc3cccnc3c2n1CC(C)(C)NC(=O)C(C)C | 154 to 156 °C |
| O=C(Nc1ccccc1)N1C(=O)C2(CCCCC2)N(O)C12CCCCC2 | 125 to 128 °C |
| O=C1CCC(c2ccccc2)(c2ccccc2)[C@@H]2CN(C(=O)Cc3ccccc3C(F)(F)F)C[C@H]12 (racemic) | 207 °C |
| O=S(=O)(NCCc1ccc(OCc2nnn[nH]2)cc1)c1ccc(Cl)cc1 | 136 °C |
| Cc1cc(C)c(Nc2nc(C)ccc2S(=O)(=O)c2ccc(OCCCCC#N)cc2)c(C)c1 | 115 to 116 °C |
| CC(C(=O)O)c1cccc(Sc2ccccc2Cl)c1O (stereo unspecified) | 143 to 145 °C |
| CN(Cc1ccc2c(c1)Nc1nccnc1S2)C(N)=C[N+](=O)[O-] | > 265 °C |
| C=C(c1ccccc1)C(O)C(NC=O)C(=O)OC (stereo unspecified) | 173 to 174 °C |
| O=C1N(Cc2csc(-c3ccc(C(F)(F)F)cc3)n2)c2ccccc2C12COc1cc3c(cc12)OCO3 (stereo unspecified) | 151 to 153 °C |

Results, then the compound that gave them:

| melting point | SMILES |
| --- | --- |
| 68 to 69 °C | CCCCCCOc1ccc(C(=O)NCC2CCCC2(C)C)cc1 (single isomer, unassigned; (+)) |
| 128 to 129 °C | CCCNc1cc(-c2c(-c3cccc(C)c3)nc3cccnn23)ccn1 |
| 158 to 160 °C | O=C1Cc2cccc(OCC3CO3)c2ON1 (stereo unspecified) |
| 117 to 118 °C | OCc1sc2cc(Br)ccc2c1Cl |
| 89 to 91 °C | CN1CCC(c2c[nH]c3cc(NC(=N)c4cccs4)ccc23)C1 (stereo unspecified) |
| 212 °C | O=C(O)c1cnn2c(C(F)(F)F)cc(-c3ccc(C(F)(F)F)c(F)c3)nc12 |
| 190 to 240 °C | O=C1C(=O)c2ccc(-c3ccc(C(F)(F)F)cc3)cc2C2=C1SCC1(CCNCC1)O2 |
| 66 to 68 °C | COC(=O)c1cc(F)c(C(F)(F)F)cc1[N+](=O)[O-] |
| 85 to 88 °C | CCCCCN=C1SC(=CC(=O)O)C(=O)N1CCCCC |
| 153 to 155 °C | CN1Cc2ccccc2C(=O)c2c1nc1ccc(Br)cc1c2Cl |
| 177 to 179 °C | CCOC(=O)C1C(=O)C=C(c2ccccc2)N=C1c1ccccc1 (stereo unspecified) |
| 145 to 146 °C | Cc1oc(-c2ccccc2)nc1COc1ccccc1COc1ccccc1CC(=O)O |
| 160 °C | CSc1ncc(S(=O)(=O)NC(=O)NC(C)C)c(Nc2cccc(C)c2)n1 |
| 144 to 147 °C | COC(=O)c1ccc(N(N)C(=O)c2ccc(Cl)c(S(N)(=O)=O)c2)c([N+](=O)[O-])c1 |
| 113 °C | COC(=O)Cc1nc(-c2ccc(Cl)cc2)oc1Oc1cc(C)ccc1C |
| 117 to 118 °C | COC1CCC(O)C(CNC(C)=O)O1 (stereo unspecified) |
| 70 to 72 °C | CCCCOCC1OC(n2c(Cl)nc3cc(Cl)c(Cl)cc32)C(O)C1O (stereo unspecified) |
| 129 to 133 °C | N#Cc1ncccc1-c1nc2cccnc2o1 |
| 40 to 41 °C | Clc1cc(Br)cnc1Br |
| 397 to 399 °C | O=C(O)c1ccc2nc(-c3ccc(F)cc3)[nH]c(=O)c2c1 |
| 120 to 122 °C | CCN1C(=O)C(=C(Cc2ccccc2)OC)SC1=S |
| 197 to 198 °C | COc1cc2c(Oc3ccc(Cl)cc3F)ncnc2cc1OCc1ccncc1 |
| 105 to 106 °C | CC(C)n1c(=O)c2ccccc2n(SC(Cl)(Cl)Cl)c1=O |
| 189 to 190 °C | O=C(O)CC(CC(=O)O)NC(=O)OCC1c2ccccc2-c2ccccc21 |
| 188 °C | OCc1cc2cc(OCc3ccccc3)c(F)cc2nc1I |
| 180 °C | COc1ccc(N2CCN(c3ccc(-n4cnnc4SC)cc3)CC2)cc1 |
| 137 to 141 °C | CCc1c(-c2ccc(O)cc2)c2cc(COC)c3cccc1n32 |
